The values that follow come from ChEMBL document CHEMBL2029230, “Identification, design and biological evaluation of heterocyclic quinolones targeting Plasmodium falciparum type II NADH:quinone oxidoreductase (PfNDH2)” (J Med Chem, 2012).

For data set [1], the system named is Plasmodium falciparum. Kind of data set: Antimalarial activity against chloroquine-resistant Plasmodium falciparum W2. Type of data set: functional, organism-based.
Data set [2] relates to Plasmodium falciparum. The data set can be described thus: Antimalarial activity against […]-resistant Plasmodium falciparum TM90C2B containing cytochrome-b Y268S mutant. It counts as functional, organism-based.
The nature of data set [3]: Inhibition of Plasmodium falciparum cytochrome b-c1 complex using decylubiquinol as substrate by spectrophotometry.
The next data set has as its system HepG2. The data set can be described thus: Cytotoxicity against human HepG2 cells. Type of data set: cell-based.
Data set [4] has as its system Plasmodium falciparum. The data set can be described thus: Antimalarial activity against blood stage forms of Plasmodium falciparum 3D7 infected in human erythrocytes. Type of data set: functional, organism-based.
For data set [5], the system named is Plasmodium berghei. The data set can be described thus: Antimalarial activity against Plasmodium berghei NS infected in CD1 mouse assessed as decrease in parasitemia at 20 mg/kg, po administered using DET as vehicle measured on day 4. Type of data set: functional. Further details: scale not given: the % may be the effect or the level left.
A short description of data set [6]: Total clearance in rat at 20 mg/kg, po. Type of data set: ADME, organism-based. Set-up: dose 20 mg/kg, route oral. Conditions: in vivo.
The nature of data set [7]: Half life in rat at 20 mg/kg, po. Type of data set: ADME, organism-based. Set-up: dose 20 mg/kg, route oral. Conditions: in vivo.
A short description of data set [8]: AUC (0 to t) in rat at 20 mg/kg, po. Conditions: plasma. Set-up: dose 20 mg/kg, route oral. Type of data set: ADME, organism-based.
For data set [9], the system named is Plasmodium berghei. Kind of data set: Antimalarial activity against Plasmodium berghei NS infected in po dosed CD1 mouse assessed as decrease in parasitemia measured on day 4. Type of data set: functional. Conditions: 96 h.
A short description of data set [10]: Inhibition of Plasmodium falciparum recombinant NDH2 expressed in Escherichia coli F571 using decyclubiquinone as substrate at 1 min by spectrophotometry.
The nature of data set [11]: Tmax in rat at 20 mg/kg, po. Type of data set: ADME, organism-based. Further details: dose 20 mg/kg, route oral. Conditions: in vivo.
A further data set relates to Rattus norvegicus. The data set can be described thus: Volume of distribution in rat at 20 mg/kg, po. Type of data set: ADME, organism-based. Further details: dose 20 mg/kg, route oral. Conditions: in vivo.
Data set [12] relates to Plasmodium berghei. Kind of data set: Antimalarial activity against Plasmodium berghei NS infected in CD1 mouse assessed as decrease in parasitemia at 20 mg/kg, po administered using SSV as vehicle measured on day 4. It counts as functional. Set-up: scale not given: the % may be the effect or the level left.
The nature of data set [13]: Metabolic stability in human liver microsomes assessed as compound remaining at 1 uM after 60 mins. Conditions: read-out: Stability. Type of data set: ADME, Microsome. Background: Microsomes from liver hold many membrane-bound enzymes, among them those of drug oxidation.
The next data set relates to Liver microsomes. The data set can be described thus: Half life in human liver microsomes at 1 uM. It counts as ADME, Microsome.
The nature of data set [14]: Cmax in rat at 20 mg/kg, po. Further details: dose 20 mg/kg, route oral. Conditions: in vivo. It counts as ADME, organism-based.
Data set [15] concerns Plasmodium berghei. The data set can be described thus: Antimalarial activity against Plasmodium berghei NS infected in CD1 mouse assessed as decrease in parasitemia at 20 mg/kg, po administered using Na2CO3 as vehicle measured on day 4. It counts as functional. Set-up: scale not given: the % may be the effect or the level left.

For the compound `Cc1c(-c2ccc(-c3ccc(OC(F)(F)F)cc3)nc2)[nH]c2ccccc2c1=O`, the half-inhibitory concentration (IC50) (as a rule, the concentration that inhibits the measured activity by half) in the data set on Plasmodium falciparum [1] was determined as 50 nM; in the data set on Plasmodium falciparum [2], 344 nM; in [3], 15 nM; in the data set with Plasmodium falciparum [4] it was 54 nM; in [10], 15 nM. The CC50 (in general, the concentration that lowers cell viability or growth by half) in the data set on HepG2 was more than 50000 nM. The figures for the Activity in the data set with Plasmodium berghei [5] and in the data set with Plasmodium berghei [12] were 100% and 87.5%, respectively. For the same compound, the CL/F (commonly clearance divided by bioavailability, as obtained after extravascular dosing) in data set [6] was 4.61 mL/min/kg. The half-life (as a rule, the time needed for the level to fall by half in the phase considered) in data set [7] was 9.9 h. The area under the curve AUC(0-t) (usually the area under the concentration-time curve up to a stated or last time point) in [8] was 69300 ng·h/mL. Further, the ED50 (commonly the midpoint of the dose-response relation) in the data set with Plasmodium berghei [9] was found to be 12.8 mg/kg. Moreover, the ED90 with Plasmodium berghei [9] stood at 27.3 mg/kg. Moreover, the Tmax (in general, the time at which the peak concentration occurs) in data set [11] is 7 h. In the data set on Rattus norvegicus, this compound returned a Vd of 3.9708 L/kg. For the same compound, in data set [13], the remaining at 1 h, 1 µM was 60%. Besides, in the data set with Liver microsomes, the t1/2 was 1.61 h. Also, the Cmax (in general, the peak of the concentration-time curve) in [14] was 3700 ng/mL.
For the compound `Cc1c(-c2ccc(-c3ccc(OC(F)(F)F)cc3)nc2)nc2ccccc2c1OP(=O)(O)O`, the Activity with Plasmodium berghei [15] is 100%.
